Data on 42 compounds can be found in PubChem BioAssay AID602235 (The Scripps Research Institute Molecular Screening Center, 2012).

The source made the active and inactive calls. No rule for the calls is given here. A value given as a limit tells only on which side of the number the result lay.

For this assay, the target named is Nuclear receptor coactivator 1 (Homo sapiens) (UniProt Q15788). Description: SRC1 (NCOA1) coactivator inhibitors, dose response, cell-based, luciferase reporter, luminescence (AID 602235).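 Also: cells transfected with pGL4.31 reporter plus pBIND-SRC1 vector; potency is for inhibitors that lower SRC1 reporter luminescence.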 On the technique in general: In a reporter assay the amount or activity of a reporter protein is the signal.
Sequence of Nuclear receptor coactivator 1 (Homo sapiens) (Q15788 whole entry, looked up): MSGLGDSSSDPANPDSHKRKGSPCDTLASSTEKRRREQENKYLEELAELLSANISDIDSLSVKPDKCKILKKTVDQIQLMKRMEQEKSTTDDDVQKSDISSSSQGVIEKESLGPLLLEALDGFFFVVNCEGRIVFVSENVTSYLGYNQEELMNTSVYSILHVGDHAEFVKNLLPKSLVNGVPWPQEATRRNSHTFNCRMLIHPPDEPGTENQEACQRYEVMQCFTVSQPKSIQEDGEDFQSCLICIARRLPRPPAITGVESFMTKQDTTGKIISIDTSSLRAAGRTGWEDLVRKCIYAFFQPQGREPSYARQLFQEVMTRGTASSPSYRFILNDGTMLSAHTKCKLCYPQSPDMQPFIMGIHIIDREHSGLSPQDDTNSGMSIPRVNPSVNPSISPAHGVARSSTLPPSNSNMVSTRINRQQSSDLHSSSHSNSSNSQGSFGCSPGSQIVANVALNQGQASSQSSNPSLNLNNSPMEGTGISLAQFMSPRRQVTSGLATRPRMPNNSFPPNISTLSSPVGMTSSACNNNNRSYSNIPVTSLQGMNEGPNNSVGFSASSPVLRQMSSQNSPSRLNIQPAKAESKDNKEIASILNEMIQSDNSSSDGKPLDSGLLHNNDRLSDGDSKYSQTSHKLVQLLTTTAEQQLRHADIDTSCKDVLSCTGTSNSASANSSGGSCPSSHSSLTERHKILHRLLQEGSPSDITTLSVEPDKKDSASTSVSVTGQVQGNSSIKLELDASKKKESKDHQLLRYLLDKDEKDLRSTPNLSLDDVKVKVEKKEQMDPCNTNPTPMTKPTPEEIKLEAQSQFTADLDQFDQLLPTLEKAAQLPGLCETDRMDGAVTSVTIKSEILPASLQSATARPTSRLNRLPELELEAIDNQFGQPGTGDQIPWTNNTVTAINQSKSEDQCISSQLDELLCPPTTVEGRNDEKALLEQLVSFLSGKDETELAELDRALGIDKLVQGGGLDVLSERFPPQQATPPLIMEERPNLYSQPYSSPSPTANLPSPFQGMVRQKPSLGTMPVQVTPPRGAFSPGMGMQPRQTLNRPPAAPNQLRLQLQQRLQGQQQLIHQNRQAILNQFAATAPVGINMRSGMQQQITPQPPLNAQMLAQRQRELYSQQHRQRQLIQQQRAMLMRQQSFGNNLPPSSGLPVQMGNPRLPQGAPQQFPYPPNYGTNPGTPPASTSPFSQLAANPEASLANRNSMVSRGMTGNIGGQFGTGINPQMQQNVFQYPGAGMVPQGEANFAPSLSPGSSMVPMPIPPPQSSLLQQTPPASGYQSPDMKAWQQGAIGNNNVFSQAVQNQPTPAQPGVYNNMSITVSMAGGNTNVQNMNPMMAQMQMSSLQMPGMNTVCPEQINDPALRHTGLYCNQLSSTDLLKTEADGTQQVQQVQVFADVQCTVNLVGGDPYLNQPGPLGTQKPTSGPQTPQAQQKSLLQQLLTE
Turning to `CCOC(=O)c1cccc2c1-c1ccccc1/C2=N/O`, the IC50 is 7.13 µM.

Take `O=C(CCl)N1N=C(c2cccs2)CC1c1ccco1` (configuration not stated): the IC50 is > 35.9 µM (inactive).

`COc1ccc2c(c1)-c1c(ssc1=S)C(C)(C)N2C(=O)CSC1=NCCS1`: the IC50 result is “inactive”.

Turning to `Nc1ccn(C2OC(CO)C(O)C2O)c(=O)n1` (configuration not stated), the IC50 was > 11.9 µM (inactive).

On to `COc1ccc(-c2cc(=O)oc3c(C)c(O)c(CN(C)C)cc23)cc1`, for which the IC50 result was “inactive”.

On to `Cc1nn(CC(=O)N2CCN(c3cccc(C(F)(F)F)c3)CC2)c(=O)c2cccn12`, for which the IC50 entry was “inactive”.

As to `COc1cccc(C2=CC(=O)CC(C)(C)C2)c1`, the IC50 entry is “inactive”.

Regarding `COc1ccccc1N(C(=O)CCl)c1cn(C(C)=O)c2ccccc12`, the IC50 is > 35.9 µM (inactive).

With `CCCCN(CCCC)c1ncnc2nc[nH]c12`, the IC50 result is “inactive”.

For the compound `COC(=O)c1sc2cnccc2c1N`, the IC50 entry was “inactive”.

Consider `O=C(Nc1cccc2c1CCCC2)c1cc([N+](=O)[O-])ccc1Cl`, for which the IC50 was > 35.9 µM (inactive).

Regarding `COc1ccc(-n2cnc3c(sc4nccc(N(C)C)c43)c2=O)cc1`, the IC50 result is “inactive”.

In the case of `COc1ccc2c(=O)cc(-c3ccncc3)oc2c1OC`, the IC50 result is “inactive”.

On to `Nc1ncccc1C(=O)OCC(=O)N1CCN(S(=O)(=O)c2ccc(Cl)cc2)CC1`, for which the IC50 result was “inactive”.

`COc1cc2c(cc1OC)C(NC(=O)C(F)(F)F)CNC2=O` (configuration not stated): the IC50 is 6.97 µM.

Take `COc1cc2c3c([nH]c2cc1F)C(=O)NCC3`: the IC50 was 9.54 µM.

Turning to `CCn1ccnc1CN(C)Cc1cn[nH]c1-c1ccc(F)cc1F`, the IC50 result was “inactive”.

Consider `Cc1ccc(OCC(=O)c2cc(C)n(Cc3cccs3)c2C)c([N+](=O)[O-])n1`, for which the IC50 is > 35.9 µM (inactive).

`COc1cc(C(=O)NC(=S)NNC(=O)c2cnccn2)cc(OC)c1OC`: the IC50 result was “inactive”.

For the compound `CCOc1ccc(/C=C2\SC(=S)N(CCC(=O)O)C2=O)cc1`, the IC50 is > 35.9 µM (inactive).

Turning to `CCOC(=O)CC(=O)CSc1nccc(-c2cccnc2)n1`, the IC50 entry was “inactive”.

In the case of `O=C(CSc1nc(-c2cccs2)cc(C(F)(F)F)n1)Nc1cc(OCC(F)(F)C(F)F)cc([N+](=O)[O-])c1`, the IC50 was > 35.9 µM (inactive).

For `CN(Cc1cnc2nc(N)nc(N)c2n1)c1ccc(C(=O)NC(CCC(=O)O)C(=O)O)cc1` (configuration not stated), the IC50 was > 35.9 µM (inactive).

Regarding `Cc1noc(/C=C/c2ccco2)c1S(=O)(=O)N1CCC(C(=O)Nc2ccc(Cl)cn2)CC1`, the IC50 was > 35.9 µM (inactive).

For the compound `Cc1cc(=O)[nH]c(Nc2cccc(Br)c2)n1`, the IC50 result was “inactive”.

Turning to `CC(C)n1c(SCC(=O)Nc2nc3c(s2)CCCC3)nc2c1c(=O)n(C)c(=O)n2C`, the IC50 result was “inactive”.

As for `O=[N+]([O-])c1cccc2c1ccc1ncccc12`, the IC50 was 9.46 µM.

For the compound `O=C(N/N=C/c1ccc(O)cc1O)/C(=C/c1ccccc1)CCO`, the IC50 entry was “inactive”.

`O=C(NC1CCCCC1)C(c1cccnc1)N(C(=O)CCl)c1cccc(Cl)c1` (configuration not stated): the IC50 is 6.91 µM.

In the case of `CN(C)C=Nc1c(C(=O)c2ccccc2)sc2nccc(N(C)C)c12`, the half-maximal inhibitory concentration (IC50) was 8.53 µM.

Turning to `S=C(c1ccc(-c2ccccc2)cc1)N1CCOCC1`, the IC50 is > 35.8 µM (inactive).

As to `Fc1ccc(CSc2nnc(-c3ccncc3)o2)cc1`, the IC50 was 6.06 µM.

In the case of `CCCCCCCC[n+]1c(C)n(-c2ccccc2)c2ccc(NC(C)=O)cc21`, the IC50 was > 35.9 µM (inactive).

For `CC(NC(=O)COC(=O)c1cccs1)c1ccccc1` (configuration not stated), the IC50 was > 35.9 µM (inactive).

For `O=C(CCC(=O)Nc1ccc(Br)cc1)N/N=C/c1ccccc1O`, the IC50 is 4.94 µM.

Consider `COc1ccc(-c2cnc(N)nc2-c2ccc(OC)cc2O)cc1`, for which the IC50 result was “inactive”.

In the case of `CN(C)c1ccc(/C=C/c2nc3ccccc3s2)cc1`, the IC50 entry is “inactive”.

As to `O=C(CCC1CCCC1)Nc1ccc(C(=O)NCc2cccnc2)cc1`, the IC50 was 3.87 µM.

Take `CCC(=O)Oc1c(C(=O)CC)cc2c(C)cc(=O)oc2c1C`: the IC50 was > 35.8 µM (inactive).

Take `CCOc1cccc(/C=N/NC(=O)c2cccnc2)c1O`: the IC50 was > 12 µM (inactive).

On to `CC1CCCCN1c1ncnc2ccccc12` (configuration not stated), for which the IC50 is > 35.9 µM (inactive).

Consider `CN(C)c1ccc(Nc2ncnc3ccc(Br)cc23)cc1`, for which the IC50 is 9.96 µM.

What is called IC50 is the concentration that inhibits the measured activity by half.
